{"source": "patent US10184115B2", "about": "“Mutated cellobiose dehydrogenase with increased substrate specificity” (DIRECTSENS GMBH, priority 2012, dated 2019)", "target": "T1, Myriococcum thermophilum cellobiose dehydrogenase (CDH), recombinant wild type, SEQ ID NO: 1 (Thermothelomyces myriococcoides, UniProt A9XK88)", "T1 sequence (A9XK88 22-828)": "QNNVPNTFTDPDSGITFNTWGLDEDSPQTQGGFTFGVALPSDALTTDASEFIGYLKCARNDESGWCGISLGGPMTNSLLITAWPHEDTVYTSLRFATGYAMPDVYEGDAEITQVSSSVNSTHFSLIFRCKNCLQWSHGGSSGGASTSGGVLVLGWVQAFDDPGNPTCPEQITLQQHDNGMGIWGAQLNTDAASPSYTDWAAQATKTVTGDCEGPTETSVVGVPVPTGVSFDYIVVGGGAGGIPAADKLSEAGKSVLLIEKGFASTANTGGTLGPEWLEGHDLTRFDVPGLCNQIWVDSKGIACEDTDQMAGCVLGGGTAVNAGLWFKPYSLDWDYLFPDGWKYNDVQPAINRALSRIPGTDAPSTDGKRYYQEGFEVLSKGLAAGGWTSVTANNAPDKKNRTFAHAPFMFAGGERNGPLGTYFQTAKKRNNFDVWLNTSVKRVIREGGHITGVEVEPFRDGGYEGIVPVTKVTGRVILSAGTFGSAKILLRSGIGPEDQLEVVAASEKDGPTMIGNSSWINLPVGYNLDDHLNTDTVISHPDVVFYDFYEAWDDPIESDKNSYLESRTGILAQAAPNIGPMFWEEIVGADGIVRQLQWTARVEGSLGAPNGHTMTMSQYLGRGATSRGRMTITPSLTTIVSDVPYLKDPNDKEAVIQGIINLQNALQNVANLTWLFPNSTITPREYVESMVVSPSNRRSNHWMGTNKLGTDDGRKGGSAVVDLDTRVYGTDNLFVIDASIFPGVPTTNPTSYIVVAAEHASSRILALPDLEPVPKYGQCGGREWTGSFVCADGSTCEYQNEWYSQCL", "assay": "Steady-state kinetics, DCIP assay: M. thermophilum CDH wt", "type": "biochemical", "conditions": "apparent, pH 4.5, 30° C.", "procedure": "Enzyme activity was assayed at 30° C. using either the DCIP (Karapetyan et al., 2005 Journal of Biotechnology 121: 34-48) or cytochrome c (Canevascini et al., 1991, European Journal of Biochemistry 198: 43-52) as electron acceptor. […] Stock solutions of carbohydrates used for kinetic measurements were prepared in the respective buffer and allowed to stand overnight for mutarotation, while stock solutions of electron acceptors were prepared in water and immediately used. The reaction stoichiometry is 1 for the two-electron acceptor DCIP (1 mole of DCIP reduced per mole of carbohydrate oxidized), but 2 for the one-electron acceptor cytochrome c. Kinetic constants were calculated by fitting the observed data to the Henri-Michaelis-Menten equation or to the adapted model for substrate inhibition using nonlinear least-squares regression and the program SigmaPlot (Systat Software, San Jose, Calif., USA). […]\nRecombinant wild-type CDH as well as variants were produced in 1 L baffled flasks. […] Increase in activity was monitored using the DCIP and the cytochrome c enzyme assays. […]\nThe sample was loaded on a 20 mL PHE Sepharose FF column (HR26/20) equilibrated with 50 mM Na-acetate buffer pH 5.5 containing 20% ammonium sulfate. […] Fractions were tested for CDH activity and pooled according to the highest Reinheitszahl (RZ, calculated from the absorbance ratio 420 nm/280 nm). […]"}
{"molecule": "OC[C@H]1OC(O)[C@H](O)[C@@H](O)[C@@H]1O", "note": "(some centres unmarked) [Glucose, glucose]", "values": [{"measurement": "kcat", "result": 4.8, "unit": "s⁻¹"}, {"measurement": "kcat/KM", "result": 12, "unit": "M⁻¹ s⁻¹"}]}
